The values below are quoted from earlier work in patent US4127520A, “Novel nonadecapeptides, intermediates therefor, and compositions and methods employing said nonadecapeptides” (priority 1977, dated 1978).

In data set [1] the test system is partially purified brain opiate receptor sites. The settings on record: natural peptide.
The conditions of data set [2]: injected directly into the brain of the rat.

As to “H-Tyr-Gly-Gly-Phe-Met-OH [methionine enkephalin]”, the “binding to partially purified brain opiate receptor sites” value in data set [1] is given as “binds stereo-specifically”. In addition, the analgesic activity result in data set [2] is “only weak analgesic agent of short duration”.
